Test results taken from patent US9540337B2, “Gamma-glutamyl transpeptidase inhibitors and methods of use” (The Board of Regents of the University of Oklahoma, priority 2012, dated 2017).
Like-named read-outs stand apart in the source and are kept apart here.

Key:
Human GGT1 (hGGT) [1] = molecular target: T1, Human GGT1 (hGGT) (Homo sapiens, UniProt P19440); assay: D-GpNA Hydrolysis Assay (release of pNA, 405 nm, pH 7.4)
Protocol: (§1) Enzyme Isolation: Human GGT1 (P19440), lacking the transmembrane domain, was expressed in Pichia pastoris and isolated as previously described (14). […] One unit of GGT activity was defined as the amount of enzyme that released 1 μmol of paranitroaniline/min at 37° C. at pH 7.4 in the transpeptidation reaction.
The reaction was initiated with the addition of 19 mU GGT. The reaction was incubated at 37° C. and monitored continuously at 405 nm by a Bio-Rad model 680 microplate reader with Microplate Manager 5.2 software (Bio-Rad, Hercules, Calif.).
Data Analysis: Samples in each experiment were run in triplicate. Each inhibitor was evaluated in two or more independent experiments. Double reciprocal plots were generated to assess data quality and determine the correct rate equation for data fitting. Data were fitted using the proper rate equation and the Marquardt-Levenberg algorithm supplied with the Enzfitter program (BIOSOFT, Cambridge, UK). Kinetic parameters with standard errors were estimated using a simple weighting method.
Data adhering to Michaelis-Menten Kinetics were fitted to eq. 1. Data for initial rate patterns with D-, L-GpNA varied at different fixed levels of glygly were fitted to eq. […] Data for competitive and uncompetitive inhibition were fitted to eqs. 3 and 4. Data for the dependence of Vmax and Vmax/KD-GpNA on the concentration of activator were fitted using eq. 5 (25).
In eqs 1-6, Vmax are the initial and maximum rates, respectively, Ka and Kb are Michaelis constants for substrates A and B, respectively, and Kis and Kii are slope and intercept inhibition constants. In eq. 5, a is the value of Vmax or Vmax/KD-GpNA at zero activator/inhibitor, KID is the activation or inhibition constant, and KIN is a constant that causes the parameter to go to a constant value at infinite concentrations of X, the activator/inhibitor. The product a(KID/KIN) is the value of Vmax or Vmax/KD-GpNA at infinite activator/inhibitor (25). Data for noncompetitive inhibition were fitted to eq. 6. Data for the dependence of Vmax and Vmax/KD-GpNA on the concentration of activator were fitted using […].
as §1, with “hGGT” for “Human GGT1”, “described.” for “described (14).”, “reaction with L-GpNA.” for “reaction.”
D-GpNA Hydrolysis Assay: The assay was carried out as previously described. […] The reaction was initiated with the addition of 19 mU GGT as determined by the L-GpNA transpeptidation assay. The reaction was incubated at 37° C. and monitored continuously at 405 nm.

hGGT = molecular target: T2, hGGT (Homo sapiens, UniProt P19440); assay: L-Glutamate Release Assay (Hydrolysis of GSH); type: biochemical; details: for Ki: GSH hydrolysis, read-out: GSH Kii; for fold more potent than OU749 in inhibiting GSH hydrolysis: relative to OU749
T2 construct: lacking the transmembrane domain; made in house; host or cells: Pichia pastoris
Protocol: L-Glutamate Release Assay (Hydrolysis of GSH): This assay measures the production of glutamate from the hydrolysis of GSH by GGT enzyme and has been described in detail previously. The concentration of the substrate, GSH, was varied from 5 μM to 20 μM. The concentration of the inhibitors, OU749 and its analogs, were varied from 15.6 μM to 250 μM. The reaction was initiated with the addition of 10 mU hGGT. […] All compounds were also evaluated as inhibitors of glutamate dehydrogenase, the enzyme in the second half of the L-glutamate release assay. None of the compounds in this study inhibited glutamate dehydrogenase.

[2] = Cytotoxicity in dividing 786-O cells (MTT assay, 72 hours); type: cell-based, human; details: human, 786-o cells, dividing 786-O cells, 72 hours; read-out: LD50
Protocol: (§2) Cell Lines: 786-0 cells (ATCC CRL-1932), a human renal adenocarcinoma cell line, were grown in Dulbecco's Modified Eagle's Medium (DMEM) supplemented with 10% fetal bovine serum (FBS) and penicillin/streptomycin (50 units/ml, 50 μg/ml). NIH3T3 cells (ATCC CRL 1658) which are GGT-negative and NIH3T3 cells expressing hGGT [described previously were grown in DMEM/F12 media supplemented with 5% FBS and 0.2 mg/ml G418.
(§3) Cytotoxicity Assays: 786-0 cells were plated at 10^3 cells/well in a 96-well plate in DMEM supplemented with 10% FBS and penicillin/streptomycin (50 units/ml, 50 μg/ml). After 24 hours, the media was changed to fresh media containing OU749 analogs. A 100 mM stock of OU749 and each of its analogs were made in DMSO then diluted in DMEM. Control wells were treated with equivalent concentrations of DMSO. Cell viability was determined 72 hours after the addition of the inhibitors by the MTT assay. For the toxicity of the OU749 and its analogs in 786-0 cells, all determinations were done in triplicate. The LD50 of each compound and the standard deviation (S.D.) were calculated with a Prism log (inhibitor) versus normalized response (variable slope) curve fit (Prism, GraphPad Software Inc., San Diego, Calif.).

786-0 cells = assay: as above; type: cell-based, human; details: for fold less toxic (cytotoxic) than OU749: LD50 ratio, 786-O cells
Protocol: as §2, §3

Human GGT1 (hGGT) [3] = molecular target: T1, Human GGT1 (hGGT); assay: L-GpNA Transpeptidation Assay with GlyGly as acceptor; type: biochemical; parameters: lacking the transmembrane domain; made in house; host or cells: Pichia pastoris
Protocol: Transpeptidation Reaction: The same assay buffer was used for both the hydrolysis reaction and the transpeptidation reaction. The transpeptidation reaction included 40 mM glycylglycine (glygly, Sigma, St. Louis, Mo.) as the acceptor. […] The concentration of L-GpNA was 3 mM for experiments in which the concentration of glygly was varied. To initiate the transpeptidation reaction, 4 mU GGT were added.
1. […] 3 and 4. […] 5 (25).
L-GpNA Transpeptidation Assay: The assay has been described previously. […] The concentration of L-GpNA was 3 mM for experiments in which the concentration of GlyGly was varied. To initiate the transpeptidation reaction, 4 mU GGT were added.

[4] = test system: hGGT expressed on the surface of 786-0 cells; assay: Catabolism of extracellular GSH by 786-O cells; type: cell-based, human; details: 100 μM Compound 6, 20 μM GSH, one hour; 60 min
Protocol: as §2
(§4) Catabolism of Extracellular GSH: 786-O and NIH3T3 cells were plated in 96-well plates at a density of 5×10^3 cells/well. After 24 hours, the media was changed to 100 μl cysteine-free DMEM/F12 supplemented with either 20 μM GSH or 20 μM GSH and 100 μM compound 6. After one hour, 50 μl of media was removed and immediately acidified with 5 μl ice-cold 43.1% 5-sulfosalicylic acid. After 10 minutes on ice, the solution was neutralized with 15 μl of 1 M NaOH. The GSH concentration was determined by the method of Tietze.

[5] = test system: human GGT in NIH3T3^GGT cells; assay: Catabolism of extracellular GSH by NIH3T3 cells transfected with human GGT; type: cell-based; details: Compound 6 100 μM, 20 μM GSH, one hour; 60 min
Protocol: as §2, §4

Human GGT1 = molecular target: T3, Human GGT1 (Homo sapiens, UniProt P19440); assay: Initial rate studies with D-GpNA and L-GpNA, with or without acceptor GlyGly; type: biochemical; details: absence of GlyGly; read-out: Kis of GSH vs L-GpNA
T3 construct: lacking the transmembrane domain; made in house; host or cells: Pichia pastoris
Protocol: Transpeptidation Reaction: The same assay buffer was used for both the hydrolysis reaction and the transpeptidation reaction. The transpeptidation reaction included 40 mM glycylglycine (glygly, Sigma, St. Louis, Mo.) as the acceptor. The concentration of the substrate for the transpeptidation reaction, L-GpNA (Sigma) was varied from 0.25 mM to 3 mM. The concentration of L-GpNA was 3 mM for experiments in which the concentration of glygly was varied. To initiate the transpeptidation reaction, 4 mU GGT were added.
1. […] 2, which describes a ping pong kinetic mechanism. […] 3 and 4. […] 5 (25).
In eq. […] Data for noncompetitive inhibition were fitted to eq. 6. […] 6 [25].
Initial Rate Studies with D-GpNA and L-GpNA: In this study, the inhibition of both the GGT hydrolysis and transpeptidation reactions by OU749 and a new series of thiadiazol sulfonamide analogs was studied. The hydrolysis and transpeptidation reactions were analyzed separately by using different stereo-isomers of the γ-glutamyl-p-nitroanilide (GpNA) substrate. The kinetics of both reactions were first characterized in the absence of inhibitors. Cleavage of the γ-glutamyl bond of either D-GpNA or L-GpNA releases p-nitroanaline, which has an OD405 of 7,680 M^−1 cm^−1, allowing for the reactions to be monitored continuously with high sensitivity. The D-glutamyl isomer of GpNA was used as the substrate for the hydrolysis reaction, in which water serves as the acceptor. The L-glutamyl isomer of GpNA, with glycylglycine (GlyGly) as an acceptor, was used for the transpeptidation reaction. L-GpNA can serve as both a substrate and a low affinity acceptor, while D-GpNA is unable to serve as an acceptor (18, 21, 26). Therefore, in the absence of an added acceptor GGT exclusively catalyzes a hydrolysis reaction with D-GpNA as the substrate. When L-GpNA is used as a substrate, the GGT reaction is a mixture of both the hydrolysis and transpeptidation reactions. Under these conditions, the rate of the reaction is the sum of hydrolysis and transpeptidation reactions, with the hydrolysis reaction contributing more at low L-GpNA concentrations and transpeptidation dominating at saturating substrate concentrations. […] However, the maximum rate (Vmax) obtained with L-GpNA was approximately 3-times faster than that measured with D-GpNA, and the KGpNA for L-GpNA was 5-times higher than that measured for D-GpNA. This is at least partially due to the ability of L-GpNA to serve as an acceptor, resulting in a transpeptidation reaction, which is faster than the hydrolysis reaction. Therefore, to study the hydrolysis reaction in isolation, D-GpNA was used as the substrate without any added acceptor.

[6] = GlyGly varied, 3 mM L-GpNA, Table 2, read-out: Transpeptidation GlyGly Kis
[7] = L-GpNA varied, 40 mM GlyGly, Table 2, read-out: Transpeptidation L-GpNA Kii

T2 sequence (P19440 381-569 limits assumed): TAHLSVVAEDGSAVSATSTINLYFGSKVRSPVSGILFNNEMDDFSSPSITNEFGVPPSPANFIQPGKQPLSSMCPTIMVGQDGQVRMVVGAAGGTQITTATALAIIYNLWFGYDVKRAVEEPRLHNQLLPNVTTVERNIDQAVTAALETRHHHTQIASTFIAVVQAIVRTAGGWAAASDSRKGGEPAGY
T2 sequence (P19440 27-380 limits assumed): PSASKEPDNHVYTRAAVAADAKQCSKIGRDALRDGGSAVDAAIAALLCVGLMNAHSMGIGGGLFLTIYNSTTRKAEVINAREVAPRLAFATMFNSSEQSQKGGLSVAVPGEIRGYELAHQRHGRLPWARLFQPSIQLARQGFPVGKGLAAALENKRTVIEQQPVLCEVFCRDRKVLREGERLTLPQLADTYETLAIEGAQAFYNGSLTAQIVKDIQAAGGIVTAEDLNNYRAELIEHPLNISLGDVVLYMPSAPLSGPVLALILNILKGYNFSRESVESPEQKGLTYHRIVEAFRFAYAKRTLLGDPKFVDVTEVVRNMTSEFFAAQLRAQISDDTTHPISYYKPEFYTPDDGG
T1 sequence (P19440 381-569 limits assumed): as the sequence (P19440 381-569 limits assumed) above
T1 sequence (P19440 27-380 limits assumed): as the sequence (P19440 27-380 limits assumed) above
T3 sequence (P19440 381-569 limits assumed): as the sequence (P19440 381-569 limits assumed) above
T3 sequence (P19440 27-380 limits assumed): as the sequence (P19440 27-380 limits assumed) above

Ki (Human GGT1) [µM] | Ki (Human GGT1 (hGGT) [3]; in the presence of 3 mM L-GpNA, read-out: Kii of GSH vs GlyGly) [µM] | Ki (Human GGT1 (hGGT) [3]; in the presence of 3 mM L-GpNA, read-out: Kis of GSH vs GlyGly) [µM] | Ki (Human GGT1 (hGGT) [3]; in the presence of 40 mM GlyGly, read-out: Kii of GSH vs L-GpNA) [µM] | Ki (Human GGT1 (hGGT) [3]; in the presence of 40 mM GlyGly, read-out: Kis of GSH vs L-GpNA) [µM] | SMILES | Ki (Human GGT1 (hGGT) [1]) [µM] | Ki (hGGT; Table 6) [µM] | fold more potent than OU749 in inhibiting GSH hydrolysis (hGGT) [fold] | CC50 at 72 h [2] [µM] | fold less toxic (cytotoxic) than OU749 (786-0 cells) | Ki (Human GGT1 (hGGT) [3]; [6]) [µM] | Ki (Human GGT1 (hGGT) [3]; [7]) [µM] | Ki (Human GGT1 (hGGT) [1]; read-out: Hydrolysis D-GpNA Kii, D-GpNA substrate, Table 2) [µM] | fold less effective than OU749 in inhibiting hydrolysis of D-GpNA (Human GGT1 (hGGT) [1]; relative to OU749) | block of hGGT catabolism of extracellular GSH [4] [%] | reduction of GSH metabolism in the media [5] [%] | CC50 (786-0 cells; dividing 786-O cells, 72 hours, 4320 min, read-out: LD50 (the source's name)) [mM] | Ki (hGGT; Table 5) [µM] | Ki (Human GGT1 (hGGT) [3]; Table 5, read-out: GlyGly with L-GpNA Kis) [µM] | Ki (Human GGT1 (hGGT) [3]; Table 5, read-out: L-GpNA with GlyGly Kii) [µM]
 |  |  |  |  | COc1ccc(Cc2nnc(NS(=O)(=O)c3cccc(Cl)c3)s2)cc1 [Compound 3] | 74.9 ± 2.2 | 67 ± 6 | 5.6 | 382 | 3 fold | 11.9 ± 1.1 | 22 ± 0.7 |  |  |  |  |  |  |  | 
 |  |  |  |  | COc1ccc(Cc2nnc(NS(=O)(=O)c3cccc4ccccc34)s2)cc1 [Compound 6] |  | 96 ± 2 | 4 | ~2100 | more than 16 fold | 45.7 ± 3.4 | 74.9 ± 3.6 | 161 ± 4.5 | 2-5 fold | 51 | 59 | 2.09 ± 0.02 |  |  | 
 |  |  |  |  | Cc1ccc(Cc2nnc(NS(=O)(=O)c3ccc(N)cc3)s2)cc1 [Compound 22] | 31 ± 1 |  |  | 727 ± 0.02 |  |  |  |  |  |  |  |  | 82 ± 13 | 6 ± 1 | 30 ± 4
73 ± 6 | 3000 ± 500 | 800 ± 100 | 1700 ± 20 | 1400 ± 10 | N[C@@H](CCC(=O)N[C@@H](CS)C(=O)NCC(=O)O)C(=O)O [GSH, glutathione, reference compound] | 10 ± 1.2 |  |  |  |  |  |  |  |  |  |  |  |  |  | 
